# Reference: article PMC12281475, “Mediator Kinase Inhibitor Selectivity and Activity in Colorectal Cancer” (ACS Chemical Biology, 2025)
# Test system: COLO205 cells
# Assay: Phospho-proteome profiling (CDK-motif antibody enrichment, LC-MS/MS)
# Type: cell-based, human
# Details: for CMPD 1/DMSO / MEAN MS SIGNAL CMPD 1 6 H: 6 H
# Text: We phospho-proteome profiled COLO205 cells to identify Mediator kinase substrates following chemical inhibition of Mediator kinase activity. Given the confirmed CDK8/19 selectivity of our compounds in binding and enzymatic activity assays, we employed a pool of antibodies selective for the proline-rich motifs phosphorylated by the CDK family to enrich potential CDK8/19 substrates for LC-MS/MS analysis.
# Adherent COLO205 cells were lysed with a urea buffer, lysates were reduced with DTT, alkylated with iodoacetimide and digested with trypsin-tosylphenylalanyl chloromethyl ketone. Digested peptides were immunoprecipitated using a pool of motif antibodies from Cell Signaling Technologies (US) comprising: phospho-MAPK substrate (PXS*P or S*PXR/K, #2325, RRID:AB_331820), phospho-CDKs substrate ((K/H)-S*P, #2324; RRID:AB_2244779), phospho-PLK binding motif (ST*P, #5243; RRID:AB_10891778) and phospho-tPE motif (T*PE, #3004; RRID:AB_10890649)-of phospho-MAPK (2325), phospho-CDK (2324), phospho-PLK (5243) and phospho-tPE (C3004) motif-recognizing antibodies immobilized onto protein A/G beads. Immunoprecipitated peptides were analyzed using an LTQ-Orbitrap-Velos. Sequences were assigned to the MS/MS spectra and evaluated using SEQUEST 3G and SORCERER 2 (Sage-N Research v4.0, Milpitas). Quantitative data was evaluated and clustered in Spotfire Decision Site (www.spotfire.tibco.com) and normalized using quartile normalization. Functional annotation and pathway analysis used DAVID (https://david.ncifcrf.gov/). […]
# Phospho-proteome analyses
# Adherent COLO205 cells were washed with PBS and cells lysed using urea lysis buffer (9 M Urea, 20 mM HEPES, pH 8.0, 1 mM beta-glycerophosphate, 1 mM sodium vanadate, 2.5 mM sodium pyrophosphate) and stored at -80 °C prior to analysis. The supernatants were reduced with 100 mM DTT for 30 minutes at 55 °C, followed by alkylation with 50 mM iodoacetimide for 15 minutes at ambient temperature in the dark.
# The samples were diluted in 20 mM HEPES, pH 8.0 and digested overnight with 10 ug/mL trypsin-tosylphenylalanyl chloromethyl ketone in 1 mM HCl. Digested peptides were acidified with 1% formic acid and then desalted over 360-mg SEP PAK C18 columns (Waters, UK). Peptides were eluted with 40% acetonitrile in 0.125% formic acid, dried under a vacuum and the lyophilised peptides used for immunoprecipitation.
# A pool of motif antibodies from Cell Signaling Technologies (US) comprising: phospho-MAPK substrate (PXS*P or S*PXR/K, #2325, RRID:AB_331820), phospho-CDKs substrate ((K/H)S*P, #2324; RRID:AB_2244779), phospho-PLK binding motif (ST*P, […]
# RRID:AB_10890649), were immobilised onto protein A/G beads overnight at 4 °C. The lyophilised peptides were resuspended in MOPS buffer (50 mM MOPS, pH 7.2, 10 mM KH2PO4, 50 mM NaCl) and centrifuged for 5 mins at 13,500 rpm in an Eppendorf benchtop microcentrifuge. The supernatants were incubated with the motif-bound beads for 2.5 hours at 4 °C . The beads were harvested by centrifugation at 4000 rpm in an Eppendorf benchtop microcentrifuge for 5 mins, washed with MOPS buffer twice and washed again 5 times with deionised water. The peptides were eluted off the beads using 0.125% formic acid, were desalted and dried under a vacuum. The lyophilised immunoprecipitated peptides were resuspended in 0.125% formic acid and separated on a capillary column packed with Magic C18 AQ reversed-phase resin.
# Peptides were eluted using a 72-minute linear gradient of acetonitrile in 0.125% formic acid delivered at 280nL/min. Samples were analysed using an LTQ-Orbitrap-Velos.
# MS Parameter Settings were: MS Run Time 96 min, MS1 Scan Range (300.0 – 1500.00), Top 20 MS/MS (Min Signal 500, Isolation Width 2.0, Normalized Coll.
# Charge State Rejection Enabled, Charge State 1+ Rejected, Dynamic Exclusion Enabled, Repeat Count 1, Repeat Duration 35.0, Exclusion List Size 500, Exclusion Duration 40.0, Exclusion Mass Width Relative to Mass, Exclusion Mass Width 10ppm). […]
# [1] = AHCTF1 peptide 1205/1240 - STlrSTplaSpspSpgrSpqr - 1225/1265
# [2] = AHNAK peptide 5778 - hrSnSfSderefSgpsTpTglefeggevsleggk - 5811
# [3] = AKNA peptide 429 - vpqefqTpeqatelvhqlqedyhr - 452
# [4] = ANLN peptide 381 - cqehSkeSparsTphrTpiiTpntk - 405
# [5] = ARHGAP19 peptide 443 - knpTpesvaigelk - 456
# [6] = ARID4B peptide 922/1008 - kaefpssgsnsvlnTpptTpespssvtvtegsr - 954/1040
# [7] = ATN1 peptide 158 - pyhppplfppSpqppdstpr - 177
# [8] = BAP1 peptide 513 - sanptrpsSpvtshisk - 529
# [9] = BCL11B peptide 367 - lrelagnSSTpppvSpgrgnpmhr - 390
# [10] = CC2D1A peptide 200 - gpasTpTySpaptqpapr - 217
# [11] = CDT1 peptide 72 - lsvdevsSpstpeapdipacpspgqk - 97
# [12] = CDT1 peptide 72 - lsvdevsspsTpeapdipacpSpgqk - 97
# [13] = CHAMP1 peptide 198 - lapvpspepqkpapvSpesvk - 219
# [14] = CHD4 peptide 1530 - mSqpgSpSpkTpTpSTpgdTqpnTpapvppaedgik - 1565
# [15] = CHD4 peptide 1531 - SqpgSpSpkTptpstpgdtqpntpapvppaedgik - 1565
# [16] = CHD4 peptide 1540 - TpTpSTpgdtqpnTpapvppaedgik - 1565
# [17] = CHD4 peptide 1540 - TptpStpgdtqpnTpapvppaedgikieenslk - 1572
# [18] = ECT2 peptide 403 - krpSaehSlSigSlldiSnTpeSsinYgdtpk - 434
# [19] = EEF1G peptide 379 - gqelafplSpdwqvdyesytwr - 100
# [20] = EGR1 peptide 6 - aemqlmsplqisdpfgsfphSptmdnypk -34
# [21] = EGR1 peptide 6 - aemqlmsplqisdpfgsfphspTmdnypk - 34
# [22] = EPC2 peptide 343 - aealitsqqpTpetlpvink - 362
smiles,measurement,setting,value
Cn1cc(-c2ccc(-c3cncc(Cl)c3N3CCC4(CCNC4=O)CC3)cc2)cn1 [CCT251545],CMPD 1/DMSO,[1],1.802
same,MEAN MS SIGNAL CMPD 1 6 H,[1],238204
same,CMPD 1/DMSO,[2],1.997
same,MEAN MS SIGNAL CMPD 1 6 H,[2],301575
same,CMPD 1/DMSO,[3],0.569
same,MEAN MS SIGNAL CMPD 1 6 H,[3],41850
same,CMPD 1/DMSO,[4],0.512
same,MEAN MS SIGNAL CMPD 1 6 H,[4],62532
same,CMPD 1/DMSO,[5],0.589
same,MEAN MS SIGNAL CMPD 1 6 H,[5],62950
same,CMPD 1/DMSO,[6],2.069
same,MEAN MS SIGNAL CMPD 1 6 H,[6],72000
same,CMPD 1/DMSO,[7],0.526
same,MEAN MS SIGNAL CMPD 1 6 H,[7],1231725
same,CMPD 1/DMSO,[8],1.826
same,MEAN MS SIGNAL CMPD 1 6 H,[8],26677
same,CMPD 1/DMSO,[9],1.888
same,MEAN MS SIGNAL CMPD 1 6 H,[9],33472
same,CMPD 1/DMSO,[10],0.625
same,MEAN MS SIGNAL CMPD 1 6 H,[10],70653
same,CMPD 1/DMSO,[11],0.368
same,MEAN MS SIGNAL CMPD 1 6 H,[11],55322
same,CMPD 1/DMSO,[12],0.429
same,MEAN MS SIGNAL CMPD 1 6 H,[12],15418
same,CMPD 1/DMSO,[13],2.031
same,MEAN MS SIGNAL CMPD 1 6 H,[13],849660
same,CMPD 1/DMSO,[14],0.456
same,MEAN MS SIGNAL CMPD 1 6 H,[14],51533
same,CMPD 1/DMSO,[15],0.310
same,MEAN MS SIGNAL CMPD 1 6 H,[15],35479
same,CMPD 1/DMSO,[16],0.193
same,MEAN MS SIGNAL CMPD 1 6 H,[16],31383
same,CMPD 1/DMSO,[17],0.000
same,MEAN MS SIGNAL CMPD 1 6 H,[17],0
same,abundance of phospho-peptide corresponding to phospho-STAT1 SER727,"COLO205, 350 nM, 6 h",decrease in abundance
same,phospho-peptides whose label-free intensities remained unchanged,"COLO205, 350 nM, 6 h",95%
same,"phosphorylation at MED13 THR565, MED14 SER1112 and MED26 SER314","COLO205, 350 nM, 6 h",reducing phosphorylation
same,phosphorylation of POLR2A CTD phospho-peptides,"COLO205, 350 nM, 6 h",no evidence of decreased phosphorylation
same,number of phospho-peptides consistently decreased by > 1.5-fold,"COLO205, 350 nM, 6 h, both independent biological repeats, 2,734 phospho-peptides identified",123
same,number of individual proteins represented by the decreased phospho-peptides,"COLO205, 350 nM, 6 h, > 1.5-fold decrease",95
same,CMPD 1/DMSO,[18],0.501
same,MEAN MS SIGNAL CMPD 1 6 H,[18],22710
same,CMPD 1/DMSO,[19],0.521
same,MEAN MS SIGNAL CMPD 1 6 H,[19],184020
same,CMPD 1/DMSO,[20],0.400
same,MEAN MS SIGNAL CMPD 1 6 H,[20],23807
same,CMPD 1/DMSO,[21],0.452
same,MEAN MS SIGNAL CMPD 1 6 H,[21],16379
same,CMPD 1/DMSO,[22],0.365
same,MEAN MS SIGNAL CMPD 1 6 H,[22],24823
same,CMPD 1/DMSO,EZH2 peptide 46 - grlpnnssrpstpTinvlesk - 376,1.970
